In ChEMBL document CHEMBL1201862, “PubChem BioAssay data set” (2004):
Active and inactive are the calls of the source.

What was measured:
[1] = Trypanosoma cruzi growth suppression in host cells – NIH3T3 host cells, beta-gal luminescence, confirmation (AID 2044); assay type: functional, cell-based;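 also: intracellular parasites grown in NIH/3T3 mouse fibroblasts as host cells; luminescent beta-galactosidase reporter signal from transgenic T. cruzi replicating inside host cells; inhibitors lower the luminescence signal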
[2] = NIH3T3 cell viability loss – ATP luminescence, mouse fibroblasts, counter-screen, dose response (AID 2010); assay type: functional, cell-based;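 also: cells exposed to compound for about 90 hours before reading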
[3] = tested on: Streptococcus sp. 'group A'; experiment: Streptococcus pyogenes SK(-)GAS viability under kanamycin – luminescence, BacTiterGlo, confirmation, counter-screen for streptokinase expression inhibitor project, dose response (AID 1900); assay type: functional, organism-based
[4] = biological target: T1, Streptokinase A (Streptococcus pyogenes serotype M1, UniProt P10520); experiment: viability-normalized secreted streptokinase activity reduction – plasminogen activation absorbance, OD405, dose response (AID 1914); assay type: functional, Streptococcus pyogenes M1 GAS;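 also: secreted streptokinase activity via plasminogen activation per viability signal from cell pellet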
T1 sequence (P10520 whole entry): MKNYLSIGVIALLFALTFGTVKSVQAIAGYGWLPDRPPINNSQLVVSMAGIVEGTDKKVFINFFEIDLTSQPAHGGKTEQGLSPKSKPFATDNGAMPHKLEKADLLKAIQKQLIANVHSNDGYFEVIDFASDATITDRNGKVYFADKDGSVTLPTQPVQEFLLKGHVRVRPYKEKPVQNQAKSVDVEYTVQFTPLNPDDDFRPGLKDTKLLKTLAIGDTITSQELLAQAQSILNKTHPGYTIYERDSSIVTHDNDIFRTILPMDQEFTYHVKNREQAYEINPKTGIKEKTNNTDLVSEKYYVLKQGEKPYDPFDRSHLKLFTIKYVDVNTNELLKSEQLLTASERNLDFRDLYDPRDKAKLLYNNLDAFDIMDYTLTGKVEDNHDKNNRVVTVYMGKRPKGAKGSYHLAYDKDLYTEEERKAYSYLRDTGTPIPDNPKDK

[5] = tested on: Streptococcus; experiment: GAS UMAA2166 growth inhibition – luminescence, BacTiterGlo, counter-screen for streptokinase expression inhibitor project, dose response (AID 1915); assay type: functional, organism-based;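 also: potency for reduction of bacterial viability or growth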
[6] = biological target: T2, Corticotropin-releasing factor receptor 2/Corticotropin-releasing factor-binding protein (Homo sapiens, UniProt P24387+Q13324); experiment: activators of CRF receptor 2 with binding protein – uHTS hits, confirmation (AID 602473); assay type: functional; conditions: read-out: EC50_Mean
T2 sequence (Q13324 whole entry): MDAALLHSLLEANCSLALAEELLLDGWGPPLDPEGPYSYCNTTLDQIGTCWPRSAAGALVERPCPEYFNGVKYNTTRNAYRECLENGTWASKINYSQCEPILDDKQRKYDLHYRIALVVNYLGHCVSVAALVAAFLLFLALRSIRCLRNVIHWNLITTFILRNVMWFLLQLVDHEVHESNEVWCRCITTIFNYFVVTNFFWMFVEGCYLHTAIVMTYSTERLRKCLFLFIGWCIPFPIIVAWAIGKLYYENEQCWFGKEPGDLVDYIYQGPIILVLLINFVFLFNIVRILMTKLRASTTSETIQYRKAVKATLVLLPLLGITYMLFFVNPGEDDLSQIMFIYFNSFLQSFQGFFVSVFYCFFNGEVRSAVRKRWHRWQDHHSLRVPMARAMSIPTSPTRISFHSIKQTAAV
T2 sequence (P24387 whole entry): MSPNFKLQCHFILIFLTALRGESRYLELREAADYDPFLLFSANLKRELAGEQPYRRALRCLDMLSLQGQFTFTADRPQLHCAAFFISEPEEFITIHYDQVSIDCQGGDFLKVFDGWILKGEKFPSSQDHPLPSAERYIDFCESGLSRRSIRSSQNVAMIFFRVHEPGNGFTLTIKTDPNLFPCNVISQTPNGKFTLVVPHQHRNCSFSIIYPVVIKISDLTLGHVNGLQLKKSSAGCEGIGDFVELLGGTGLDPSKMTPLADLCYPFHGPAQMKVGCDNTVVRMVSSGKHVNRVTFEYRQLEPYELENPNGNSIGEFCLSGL

[7] = Luminescence Cell-Based Dose Response HTS to Identify Activators of Luciferase Translation or Activity in H4 […] Cells. [Related pubchem assays: 1829 (Project Summary), 1814 (Primary HTS)]; assay type: functional
[8] = tested on: H4; experiment: Luminescence Cell-Based Dose Response HTS to Identify Activators of 5'UTR Stem-Loop Driven Prion Protein mRNA Translation in H4 Neuroglioblastoma Cells. [Related pubchem assays: 1829 (Project Summary), 1814 (Primary HTS)]; assay type: functional; conditions: Homo sapiens
[9] = biological target: Cytochrome P450 2C19 (Homo sapiens, UniProt P33261); experiment: Cytochrome panel assay with activity outcomes. Panel member name: p450-cyp2c19 Compounds with AC50 equal or less than 10 uM are considered active; assay type: functional
[10] = biological target: Cytochrome P450 2C9 (Homo sapiens, UniProt P11712)
Sequence of Cytochrome P450 2C9 (P11712 whole entry): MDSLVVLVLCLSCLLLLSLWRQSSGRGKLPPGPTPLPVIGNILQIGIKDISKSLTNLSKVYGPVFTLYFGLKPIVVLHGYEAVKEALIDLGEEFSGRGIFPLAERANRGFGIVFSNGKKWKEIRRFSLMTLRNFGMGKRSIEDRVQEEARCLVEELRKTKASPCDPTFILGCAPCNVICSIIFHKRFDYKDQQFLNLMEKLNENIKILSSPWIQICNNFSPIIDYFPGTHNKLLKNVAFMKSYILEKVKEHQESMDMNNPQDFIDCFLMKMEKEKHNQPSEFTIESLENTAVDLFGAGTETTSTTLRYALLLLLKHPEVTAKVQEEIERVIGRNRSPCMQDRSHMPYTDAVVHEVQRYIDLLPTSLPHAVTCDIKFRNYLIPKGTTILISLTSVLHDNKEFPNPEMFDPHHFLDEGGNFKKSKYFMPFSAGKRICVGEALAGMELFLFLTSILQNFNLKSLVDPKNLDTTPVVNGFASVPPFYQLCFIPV

Sequence of Cytochrome P450 2C19 (P33261 whole entry): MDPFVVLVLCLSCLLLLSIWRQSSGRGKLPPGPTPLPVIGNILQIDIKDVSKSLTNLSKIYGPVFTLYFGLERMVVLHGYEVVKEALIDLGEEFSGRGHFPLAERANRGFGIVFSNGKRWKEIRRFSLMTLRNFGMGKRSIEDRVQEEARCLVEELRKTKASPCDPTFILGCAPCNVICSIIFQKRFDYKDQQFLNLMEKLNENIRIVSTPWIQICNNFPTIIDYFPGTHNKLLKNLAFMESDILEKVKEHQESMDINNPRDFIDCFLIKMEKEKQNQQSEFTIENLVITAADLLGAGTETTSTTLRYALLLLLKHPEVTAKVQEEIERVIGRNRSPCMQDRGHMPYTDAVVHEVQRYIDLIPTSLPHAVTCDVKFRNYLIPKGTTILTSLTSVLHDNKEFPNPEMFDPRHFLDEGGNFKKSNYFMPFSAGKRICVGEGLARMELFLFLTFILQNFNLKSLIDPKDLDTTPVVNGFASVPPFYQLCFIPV

Structure (SMILES) | EC50 [3] | EC50 [4] | EC50 [5] | also measured
Cc1ccc(C)c(NC(=S)N2CCC(c3nc4ccccc4s3)CC2)c1 |  |  |  | EC50 [1]: 3.67 µM (active); EC50 [2]: > 30 µM (not active)
COc1ccc(CCN2CC(C(=O)NCCc3ccccn3)CCC2=O)cc1 (stereo not drawn) | > 150 µM (not active) | > 150 µM (not active) | > 150 µM (not active) | 
CN(C)c1ccc(/C=C/c2c([N+](=O)[O-])c(=O)n(C)c(=O)n2C)cc1 | 5.75 µM (active) | > 150 µM (not active) | 18.3 µM (active) | 
CN(C)CCCN(C(=O)CCc1ccccc1)c1nc2c(F)cccc2s1 |  |  |  | EC50 [1]: 0.819 µM (active); EC50 [2]: > 30 µM (not active)
COc1ccc(N2C(=O)/C(=C\NNS(=O)(=O)c3cc(C)ccc3C)c3ccccc3C2=O)cc1OC |  |  |  | EC50 [6]: 15.5 µM (active)
O=C(N/N=C/c1ccc(OCc2ccccc2)cc1)c1ccncc1 |  |  |  | EC50 [7]: 17.7 µM (active); EC50 [8]: 19.3 µM (active)
Nc1ccc(-c2nc3nc(N)nc(N)c3nc2-c2ccc(N)cc2)cc1 | 2.94 µM (active) | > 150 µM (not active) | > 150 µM (not active) | 
O=C(NCCc1ccccc1)C1=COCCO1 |  |  |  | EC50 [7]: 0.762 µM (active); EC50 [8]: > 120 µM (not active)
CCCn1nc2cc(C(=O)NCc3ccc4c(c3)OCO4)ccc2c1OCC |  |  |  | AC50 ([9]; read-out: AC50): 14.1 µM (inconclusive); AC50 [10]: 10 µM (inconclusive)
C/N=C(N)/N=C(\N)Nc1cc2ccccc2c2ccccc12 |  |  |  | AC50 ([9]; read-out: AC50): 3.98 µM (inconclusive)
CO[C@@H]1COC(=O)[C@H]2CCCN2C(=O)C/C=C\[C@@H](C)[C@H](OC)COC(=O)[C@H]2CCCN2C(=O)C/C=C\[C@H]1C |  |  |  | AC50 [9]: inconclusive
CCCC(=O)Nc1sc2c(c1C#N)CCCCC2 |  |  |  | EC50 [7]: 0.102 µM (active); EC50 [8]: > 120 µM (not active)
Cc1ccc(NC(=O)CCC(=O)NNS(=O)(=O)c2ccccc2)c(C)c1 |  |  |  | AC50 ([9]; read-out: AC50): 17.8 µM (inconclusive)
Cc1ccc(-n2ncc(Cl)c2C(=O)NC2CC2)cc1 |  |  |  | EC50 [7]: 0.26 µM (active)
O=C(O)CCCCCCCCc1cn(Cc2ccc(C(=O)c3ccccc3)cc2)nn1 |  |  |  | EC50 [1]: > 60 µM (not active); EC50 [2]: 6.22 µM (active)
CCc1c(O)n(-c2ccccc2)c(SCC(=O)NC(C)(C)C)nc1=O |  |  |  | AC50 ([9]; read-out: AC50): 35.5 µM (inconclusive); AC50 [10]: 20 µM (inconclusive)
Cc1ccccc1-c1cc(-c2ccccc2O)[nH]n1 | 9.25 µM (active) |  | > 150 µM (not active) | 
Cc1cccc(OCC(=O)Nc2ccc(C(=O)Nc3ccccc3C(=O)O)cc2)c1C | 6.06 µM (active) | > 150 µM (not active) | > 150 µM (not active) | 
Cc1ccc(Cn2c(O)c(N=NC(S)=Nc3ccccc3F)c3ccccc32)cc1 |  |  |  | EC50 [1]: 0.886 µM (active); EC50 [2]: 17.4 µM (active)
CCC[C@@H]1C[C@@]1(CCC)[C@@H](NP(=O)(c1ccccc1)c1ccccc1)c1ccc(C(=O)OC)cc1 | 5.5 µM (active) | > 150 µM (not active) | 6.87 µM (active) | 
CCOC(=O)c1cn2nc(Oc3ccccc3)ccc2n1 |  |  |  | EC50 [7]: 7.96 µM (active); EC50 [8]: > 120 µM (not active)
COC(=O)[C@@]1(Cc2ccc(OC)cc2)[C@H]2c3cc(C(=O)N4CCCC4)n(Cc4cc(C)n(C)n4)c3C[C@H]2CN1C(=O)c1ccccc1 |  |  |  | AC50 [10]: 12.6 µM (inconclusive)
CCn1ccnc1CN1CCc2c([nH]c3ccccc23)C1C1CCCCC1 (stereo not drawn) | 5.53 µM (active) | 42.1 µM (active) | 29.3 µM (active) | 
CCN(CC)CCN(C(=O)CCS(=O)(=O)c1ccccc1)c1nc2cc3c(cc2s1)OCO3 |  |  |  | EC50 [1]: 0.794 µM (active); EC50 [2]: > 60 µM (not active)
CN1/C(=C\C=C(/C#N)C(=O)Nc2ccc(Cl)cc2)C(C)(C)c2ccccc21 |  |  |  | EC50 [6]: 6.43 µM (active)

Structure (SMILES) | EC50 [3] | EC50 [4] | EC50 [5] | also measured
Cc1cc(C)nc(SCc2nnc(SCC(N)=O)n2Cc2ccco2)n1 |  |  |  | AC50 [10]: 3.55 µM (inconclusive)
O=C(NCc1ccccc1)C(=O)Nc1nc(-c2ccccc2)cs1 | 5.38 µM (active) | > 150 µM (not active) | 14.1 µM (active) | 
Cc1ccccc1-c1cc(-c2ccccc2O)n[nH]1 |  | 66.2 µM (inconclusive) |  | 
N#Cc1c(N2CCOCC2)nc(N2CCCCC2)c2c1CCN(C1CCCCC1)C2 |  |  |  | EC50 [1]: 0.251 µM (active); EC50 [2]: > 30 µM (not active)
Cc1ccc(NC(=O)CN2C(=O)N/C(=C/c3ccc(C)o3)C2=O)cc1 |  |  |  | AC50 [10]: 14.1 µM (inconclusive)
Cc1cccc(OCCCCc2c(C)n[nH]c2C)c1C | 6.66 µM (active) |  | 17 µM (active) | 
CCCc1nnc(NC(=O)Cn2cnc3ccccc3c2=O)s1 |  |  |  | AC50 ([9]; read-out: AC50): 25.1 µM (inconclusive)
CC(C)Cn1c(=O)c(C(=O)N/N=C/c2cccc(F)c2)c(O)c2ccccc21 | 1.28 µM (active) |  | 3.69 µM (active) | 
Nc1nc(Nc2ccc(Cl)cc2)nc(NCc2ccco2)c1[N+](=O)[O-] | 7.12 µM (active) | > 150 µM (not active) | 26.4 µM (inconclusive) | 
Cc1oc(-c2ccc(F)cc2)nc1CN(Cc1ccccn1)CC1CCCO1 (stereo not drawn) | 30.4 µM (active) | > 150 µM (not active) | > 150 µM (not active) | 
Cc1[nH]c(-c2ccc(F)cc2)cc1C(=O)N1CCN(c2cccc(Cl)c2)CC1 | 3.8 µM (active) | > 150 µM (not active) | 11.8 µM (active) | 
COc1ccc(C(C(=O)NC(C)(C)C)N(C(=O)CNC(=O)c2cccs2)c2ccc(C)cc2)cc1OC (stereo not drawn) |  |  |  | AC50 ([9]; read-out: AC50): 17.8 µM (inconclusive)
CCN(CC)c1ccc(C2Nc3cccc4cccc(c34)N2)cc1 |  |  |  | EC50 [7]: 16.8 µM (active); EC50 [8]: 27.2 µM (active)
Cc1ccc(C(=O)NC(=S)NNC(=O)COc2ccccc2C)cc1 | 0.138 µM (active) |  | 0.555 µM (active) | EC50 [6]: 10.6 µM (active)
C[C@H](N)C(=O)OC(C)(C)Cc1ccc(Cl)cc1 [(S)-ALAPROCLATE] |  |  |  | AC50 [10]: 39.8 µM (inconclusive)
Cc1c(Br)c([N+](=O)[O-])nn1CC(=O)NCc1ccccn1 |  |  |  | AC50 [9]: inconclusive
O=C(c1cc(-c2ccccc2)nc2ccccc12)N1CCN(c2ccccc2O)CC1 | 23.8 µM (active) | 61.5 µM (active) | 61.7 µM (active) | 
CCOC(=O)C1CN(S(=O)(=O)c2cccc(C(F)(F)F)c2)c2cc(CC(=O)OC)ccc2O1 (stereo not drawn) |  |  |  | AC50 ([9]; read-out: AC50): 0.282 µM (inconclusive)
COc1cc(CN2CCCC(C(=O)c3ccccc3SC)C2)cc(OC)c1 (stereo not drawn) |  |  |  | EC50 [1]: 0.557 µM (active); EC50 [2]: > 60 µM (not active)
CCN(CC)c1ccc(NC(=O)c2c(C)noc2C)cc1 | > 150 µM (not active) | > 150 µM (not active) | > 150 µM (not active) | 
COc1ccccc1CN1CC(C(=O)NCc2ncccc2C)CCC1=O (stereo not drawn) | > 150 µM (not active) | > 150 µM (not active) | > 150 µM (not active) | 
CSc1ccc(/C=N/n2c(C)cc(C)cc2=O)cc1 |  |  |  | EC50 [7]: 18.2 µM (active); EC50 [8]: 7.91 µM (active)
CCOc1ccc(NC(=O)CC2C(=O)N(C)C(=S)N2CCCc2ccccc2)cc1 (stereo not drawn) |  |  |  | EC50 [1]: 2.4 µM (active); EC50 [2]: > 60 µM (not active)
O=C(Nc1nnc(C2=COCCO2)o1)c1cccc(F)c1 | 1.83 µM (active) | > 150 µM (not active) | 19.6 µM (active) | 
